Data taken from ChEMBL document CHEMBL1126847, “Deoxygenated inositol 1,4,5-trisphosphate analogues and their interaction with metabolic enzymes. (1R,2R,4R)-cyclohexane-1,2,4-tris(methylenesulfonate): a potent selective 5-phosphatase inhibitor” (J Med Chem, 1993).

Tests used:
[1] = target: T1, Inositol polyphosphate-5-phosphatase A (Homo sapiens, UniProt Q14642); assay: Tested for inhibition of 5-phosphatase isolated from human erythrocyte membrane (R metabolically resistant)
T1 sequence (Q14642 whole entry): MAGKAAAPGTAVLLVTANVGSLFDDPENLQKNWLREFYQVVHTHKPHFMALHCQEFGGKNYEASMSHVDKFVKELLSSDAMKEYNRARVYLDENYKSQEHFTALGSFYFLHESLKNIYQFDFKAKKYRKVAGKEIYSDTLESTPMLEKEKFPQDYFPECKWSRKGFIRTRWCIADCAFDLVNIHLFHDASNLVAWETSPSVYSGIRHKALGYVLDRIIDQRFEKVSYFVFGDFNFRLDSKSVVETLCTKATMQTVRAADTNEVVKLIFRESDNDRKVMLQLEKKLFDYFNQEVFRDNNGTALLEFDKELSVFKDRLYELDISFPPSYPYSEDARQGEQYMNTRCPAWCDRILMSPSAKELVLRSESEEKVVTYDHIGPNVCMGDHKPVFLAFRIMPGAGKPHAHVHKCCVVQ

[2] = (§1) Inhibition of Inositol 1,4,5-trisphosphate 3-kinase from rat brain homogenate (R metabolically resistant); type: tissue-based
[3] = Tested for the ability to displace [3H]1,4,5-IP3 from the 1,4,5-IP3 specific binding site of membranes from the bovine adrenal cortices
[4] = Tested for [Ca2+] release in 45 [Ca2+] -preloaded SH-SY5Y cells using saponin; type: functional, cell-based; conditions: Homo sapiens
[5] = target: T1, Inositol polyphosphate-5-phosphatase A; assay: Tested for inhibition of 5-phosphatase isolated from human erythrocyte membrane (S substrate)
[6] = Inhibition of Inositol 1,4,5-trisphosphate 3-kinase from rat brain homogenate (r-metabolically resistant)
[7] = target: T1, Inositol polyphosphate-5-phosphatase A; assay: Tested for inhibition of 5-phosphatase isolated from human erythrocyte membrane
[8] = Inhibition of Inositol 1,4,5-trisphosphate 3-kinase from rat brain homogenate (r metabolically resistant)
[9] = as §1
[10] = Inhibition of Inositol 1,4,5-trisphosphate 3-kinase from rat brain homogenate (S substrate)

Structure (SMILES) | Ki [1] [µM] | Ki [2] [µM] | Ki [3] [µM] | EC50 [4] [µM] | Ki [5] [µM] | Ki [6] [µM] | Ki [7] [µM] | Ki [8] [µM] | Ki [9] [µM] | Ki [10] [µM]
O=P(O)(O)OCC1CCC(COP(=O)(O)O)[C@H](COP(=O)(O)O)C1 (stereo partly specified) | 144 | > 600 | > 100 | > 100 | – | – | – | – | – | –
O=P(O)(O)OC1CCC(OP(=O)(O)O)[C@H](OP(=O)(O)O)C1 (stereo partly specified) | – | – | 3.95 | > 10 | 81.4 | 36 | – | – | – | –
O=S(=O)(O)CC1CC[C@@H](CS(=O)(=O)O)C[C@H]1CS(=O)(=O)O (stereo partly specified) | – | > 600 | > 100 | > 100 | – | – | 3.9 | – | – | –
O=P(O)(O)OC1[C@H](O)CC(OP(=O)(O)O)[C@H](OP(=O)(O)O)[C@@H]1O (stereo partly specified) | – | – | 0.0234 | 0.156 | 11.5 | – | – | 25 | – | –
O=S(=O)(O)CC1CC[C@H](CS(=O)(=O)O)C[C@H]1CS(=O)(=O)O (stereo partly specified) | > 1000 | – | > 100 | > 100 | – | – | – | – | > 600 | –
O=P(O)(O)O[C@@H]1[C@H](O)[C@H](O)[C@@H](OP(=O)(O)O)[C@H](OP(=O)(O)O)[C@H]1O [INS(1,4,5)P3] | – | – | 0.0022 | 0.0521 | 15 | – | – | – | – | 0.85
O=P(O)(O)CC1CCC(CP(=O)(O)O)[C@H](CP(=O)(O)O)C1 (stereo partly specified) | 535 | > 600 | > 100 | > 100 | – | – | – | – | – | –
O=P(O)(O)OC1CCC(OP(=O)(O)O)[C@H](OP(=O)(O)O)[C@@H]1O (stereo partly specified) | – | – | 0.0396 | 0.186 | 16.5 | – | – | 19 | – | –
O=P(O)(O)Cc1ccc(CP(=O)(O)O)c(CP(=O)(O)O)c1 | 148 | > 200 | > 100 | > 100 | – | – | – | – | – | –
